How the values were obtained:
Test in all cases: combination Emax (second highest fraction inhibited in the dose matrix, 72 h); higher = more inhibition; extreme values may be limits of the assay
[1] = system: JHH-7 (Hepatocellular Carcinoma)
Procedure, shortened: (§1)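 Cell lines grown in DMEM/F12 or RPMI with 10% FBS were plated in 1536-well plates and held 24 hours at 37°C, 5% CO2 before 72 hours of exposure to two-drug dose matrices, with DMSO typically at 0.2%. CellTiter-Glo 2.0 luminescence gave viability, which was converted to inhibition. Vehicle wells were set to 0 and blank wells to 1. Combination Emax is the second-highest inhibition in the matrix, and Bliss excess is the observed combination effect minus the expected EA + EB − EA·EB, where EA and EB are the single-agent effects.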

[2] = system: OVISE (Ovarian Carcinoma)
Procedure, shortened: as §1

[3] = system: VMRC-LCD (Lung Adenocarcinoma)
Procedure, shortened: as §1

[4] = system: NCI-H1573 (Lung Adenocarcinoma)
Procedure, shortened: as §1

GI-1 (Glioblastoma) = system: GI-1 (Glioblastoma)
Procedure, shortened: as §1

[5] = system: HuP-T3 (Pancreatic Carcinoma)
Procedure, shortened: as §1

[6] = system: BV-173 (Chronic Myelogenous Leukemia)
Procedure, shortened: as §1

[7] = system: EBC-1 (Squamous Cell Lung Carcinoma)
Procedure, shortened: as §1

[8] = system: SCC-9 (Oral Cavity Carcinoma)
Procedure, shortened: as §1

[9] = system: NCI-H2405 (Lung Adenocarcinoma)
Procedure, shortened: as §1

[10] = system: KU-19-19 (Bladder Carcinoma)
Procedure, shortened: as §1

[11] = system: H-EMC-SS (Chondrosarcoma)
Procedure, shortened: as §1

[12] = system: SNU-C1 (Colorectal Carcinoma)
Procedure, shortened: as §1

[13] = system: KP-2 (Pancreatic Carcinoma)
Procedure, shortened: as §1

In the case of CN(CCO)CC[C@H](CSc1ccccc1)Nc1ccc(S(=O)(=O)NC(=O)c2ccc(N3CCC([C@@H](O)c4ccccc4-c4ccc(Cl)cc4)CC3)cc2)cc1S(=O)(=O)C(F)(F)F [AZD4320] + C=CCn1c(=O)c2cnc(Nc3ccc(N4CCN(C)CC4)cc3)nc2n1-c1cccc(C(C)(C)O)n1 [AZD1775] (first compound max 1 µM, partner max 1 µM), the “combination Emax” value [1] is reported as 0.524, the “combination Emax” value [2] is reported as 0.939 and the “combination Emax” value [3] is reported as 0.562. The “combination Emax” value [4] was 0.291, the “combination Emax” value (GI-1 (Glioblastoma)) was 1 and the “combination Emax” value [5] was 0.412. The “combination Emax” value [6] was 0.958, the “combination Emax” value [7] was 0.975 and the “combination Emax” value [8] was 0.281. For the same molecule, the “combination Emax” value [9] was 0.193, the “combination Emax” value [10] was 0.964 and the “combination Emax” value [11] was 0.402. For the same molecule, the “combination Emax” value [12] was 0.613 and the “combination Emax” value [13] was 0.912.

Cc1c2c(nn1C)CSCc1cc(n(C)n1)CSc1cc(c3ccccc3c1)OCCCc1c(C(=O)O)n(C)c3c-2c(Cl)ccc13 [AZD5991] + CC1(C)CCC(CN2CCN(c3ccc(C(=O)NS(=O)(=O)c4ccc(NCC5CCOCC5)c([N+](=O)[O-])c4)c(Oc4cnc5[nH]ccc5c4)c3)CC2)=C(c2ccc(Cl)cc2)C1 [Venetoclax] (first compound max 1 µM, 7x7, partner max 1 µM) was tested, and the “combination Emax” value [1] was 0.221, the “combination Emax” value [2] was 0.442 and the “combination Emax” value [3] was 0.164. For the same molecule, the “combination Emax” value [4] was 0.302, the “combination Emax” value (GI-1 (Glioblastoma)) was 0.954 and the “combination Emax” value [5] was 0.128. For the same molecule, the “combination Emax” value [6] was 0.95, the “combination Emax” value [7] was 0.199 and the “combination Emax” value [8] was 0.256. The “combination Emax” value [9] was 0.175, the “combination Emax” value [10] was 0.588 and the “combination Emax” value [11] was 0.515. For the same molecule, the “combination Emax” value [12] was 0.574 and the “combination Emax” value [13] was 0.239.

In the case of COc1cccc2c1C(=O)c1c(O)c3c(c(O)c1C2=O)C[C@@](O)(C(=O)CO)C[C@@H]3O[C@H]1C[C@H](N)[C@H](O)[C@H](C)O1 [Doxorubicin] + Cc1cc2ncnn2cc1Nc1ncc2c(n1)n(C1CCOCC1)c(=O)n2C [AZD7648] (first compound max 1 µM, 7x7, partner max 10 µM), the “combination Emax” value [1] is reported as 0.411, the “combination Emax” value [2] is reported as 0.554 and the “combination Emax” value [3] is reported as 0.612. For the same molecule, the “combination Emax” value [4] was 0.255, the “combination Emax” value (GI-1 (Glioblastoma)) was 0.929 and the “combination Emax” value [5] was 0.606. For the same molecule, the “combination Emax” value [6] was 0.994, the “combination Emax” value [7] was 0.496 and the “combination Emax” value [8] was 0.411. For the same molecule, the “combination Emax” value [9] was 0.201, the “combination Emax” value [10] was 0.814 and the “combination Emax” value [11] was 0.957. The “combination Emax” value [12] was 0.407 and the “combination Emax” value [13] was 0.513.

In the case of NC1(C(=O)N[C@@H](CCO)c2ccc(Cl)cc2)CCN(c2ncnc3[nH]ccc23)CC1 [Capivasertib] + Cn1cnc2c(F)c(Nc3ccc(Br)cc3Cl)c(C(=O)NOCCO)cc21 [Selumetinib] (first compound max 10 µM, 7x7, partner max 10 µM), the “combination Emax” value [1] is reported as 0.418, the “combination Emax” value [2] is reported as 0.454 and the “combination Emax” value [3] is reported as 0.248. The “combination Emax” value [4] was 0.495, the “combination Emax” value (GI-1 (Glioblastoma)) was 0.622 and the “combination Emax” value [5] was 0.464. The “combination Emax” value [6] was 0.718, the “combination Emax” value [7] was 0.963 and the “combination Emax” value [8] was 0.723. For the same molecule, the “combination Emax” value [9] was 0.573, the “combination Emax” value [10] was 0.921 and the “combination Emax” value [11] was 0.797. For the same molecule, the “combination Emax” value [12] was 0.703 and the “combination Emax” value [13] was 0.454.

Cc1c2c(nn1C)CSCc1cc(n(C)n1)CSc1cc(c3ccccc3c1)OCCCc1c(C(=O)O)n(C)c3c-2c(Cl)ccc13 [AZD5991] + CCN(CCO)CCCOc1ccc2c(Nc3cc(CC(=O)Nc4cccc(F)c4)[nH]n3)ncnc2c1 [AZD2811] (first compound max 1 µM, 7x7, partner max 1 µM) was tested, and the “combination Emax” value [1] was 0.453, the “combination Emax” value [2] was 0.376 and the “combination Emax” value [3] was 0.613. The “combination Emax” value [4] was 0.425, the “combination Emax” value (GI-1 (Glioblastoma)) was 0.9 and the “combination Emax” value [5] was 0.241. The “combination Emax” value [6] was 0.95, the “combination Emax” value [7] was 0.243 and the “combination Emax” value [8] was 0.293. For the same molecule, the “combination Emax” value [9] was 0.221, the “combination Emax” value [10] was 0.508 and the “combination Emax” value [11] was 0.392. The “combination Emax” value [12] was 0.415 and the “combination Emax” value [13] was 0.264.

In the case of C=CCn1c(=O)c2cnc(Nc3ccc(N4CCN(C)CC4)cc3)nc2n1-c1cccc(C(C)(C)O)n1 [AZD1775] + C[C@@H]1COCCN1C2=NC(=NC(=C2)C3(CC3)[S@](=N)(=O)C)C4=C5C=CNC5=NC=C4 [AZD6738] (first compound max 1 µM, partner max 10 µM), the “combination Emax” value [1] is reported as 0.642, the “combination Emax” value [2] is reported as 0.777 and the “combination Emax” value [3] is reported as 0.733. The “combination Emax” value [4] was 0.694, the “combination Emax” value (GI-1 (Glioblastoma)) was 0.984 and the “combination Emax” value [5] was 0.705. For the same molecule, the “combination Emax” value [6] was 0.988, the “combination Emax” value [7] was 0.616 and the “combination Emax” value [8] was 0.434. For the same molecule, the “combination Emax” value [9] was 0.355, the “combination Emax” value [10] was 0.811 and the “combination Emax” value [11] was 0.606. For the same molecule, the “combination Emax” value [12] was 0.624 and the “combination Emax” value [13] was 0.297.

With CN(C)CCCOc1ccc(-c2ccc3ncc4c(c3c2)n(C2CCOCC2)c(=O)n4C)cn1 [AZD0156] + O=C(c1cc(Cc2n[nH]c(=O)c3ccccc23)ccc1F)N1CCN(C(=O)C2CC2)CC1 [Olaparib] (first compound max 3 µM, partner max 3 µM) the “combination Emax” value [1] was 0.339, the “combination Emax” value [2] was 0.306 and the “combination Emax” value [3] was 0.0443. For the same molecule, the “combination Emax” value [4] was 0.18, the “combination Emax” value (GI-1 (Glioblastoma)) was 0.336 and the “combination Emax” value [5] was 0.223. The “combination Emax” value [6] was 0.764, the “combination Emax” value [7] was 0.267 and the “combination Emax” value [8] was 0.262. For the same molecule, the “combination Emax” value [9] was 0.256, the “combination Emax” value [10] was 0.221 and the “combination Emax” value [11] was 0.258. For the same molecule, the “combination Emax” value [12] was 0.226 and the “combination Emax” value [13] was 0.152.

With CN(C)CCCOc1ccc(-c2ccc3ncc4c(c3c2)n(C2CCOCC2)c(=O)n4C)cn1 [AZD0156] + C=CCn1c(=O)c2cnc(Nc3ccc(N4CCN(C)CC4)cc3)nc2n1-c1cccc(C(C)(C)O)n1 [AZD1775] (first compound max 1 µM, partner max 1 µM) the “combination Emax” value [1] was 0.136, the “combination Emax” value [2] was 0.7 and the “combination Emax” value [3] was 0.357. The “combination Emax” value [4] was 0.159, the “combination Emax” value (GI-1 (Glioblastoma)) was 0.88 and the “combination Emax” value [5] was 0.205. For the same molecule, the “combination Emax” value [6] was 0.995, the “combination Emax” value [7] was 0.165 and the “combination Emax” value [8] was 0.168. The “combination Emax” value [9] was 0.0974, the “combination Emax” value [10] was 0.751 and the “combination Emax” value [11] was 0.346. For the same molecule, the “combination Emax” value [12] was 0.295 and the “combination Emax” value [13] was 0.147.

Reference: the supplement of paper PMC11061612
